Results: ChEMBL document CHEMBL1201862, “PubChem BioAssay data set” (2004)
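Assay format: 96-well plates, 48-hour exposure. Abbreviation: GI50, concentration required for 50% inhibition of growth.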 Active and inactive are the calls of the source. Rule as the data show it: active = GI50 up to about 1.1 µM and inactive = higher.

How the values were obtained:
Assay in all cases: NCI anticancer screen, dose series, 48 h
BT-549 = system: BT-549
HCT-15 = system: HCT-15
MCF7 = system: MCF7
HL-60 = system: HL-60
MOLT-4 = system: MOLT-4
TK-10 = system: TK-10
UO-31 = system: UO-31
HOP-92 = system: HOP-92
NCI-H226 = system: NCI-H226
SR = system: SR
EKVX = system: EKVX
PC-3 = system: PC-3
OVCAR-8 = system: OVCAR-8
SF-539 = system: SF-539
OVCAR-4 = system: OVCAR-4
786-0 = system: 786-0
OVCAR-3 = system: OVCAR-3
NCI-H460 = system: NCI-H460
Malme-3M = system: Malme-3M
K562 = system: K562
NCI-H23 = system: NCI-H23
SW-620 = system: SW-620
COLO 205 = system: COLO 205
M14 = system: M14
MDA-MB-435 = system: MDA-MB-435
OVCAR-5 = system: OVCAR-5
UACC-62 = system: UACC-62
SN12C = system: SN12C
A549 = system: A549
KM12 = system: KM12
SNB-75 = system: SNB-75
HCC 2998 = system: HCC 2998
SNB-19 = system: SNB-19
CAKI-1 = system: CAKI-1
DU-145 = system: DU-145
SK-MEL-28 = system: SK-MEL-28
SF-268 = system: SF-268
Hs-578T = system: Hs-578T
CCRF-CEM = system: CCRF-CEM
T47D = system: T47D
HCT-116 = system: HCT-116
U-251 = system: U-251
IGROV-1 = system: IGROV-1
SK-MEL-2 = system: SK-MEL-2
HT-29 = system: HT-29
SF-295 = system: SF-295
MDA-MB-231 = system: MDA-MB-231
MDA-N = system: MDA-N
ACHN = system: ACHN
SK-MEL-5 = system: SK-MEL-5
NCI/ADR-RES = system: NCI/ADR-RES
LOX IMVI = system: LOX IMVI
RXF 393 = system: RXF 393
HOP-62 = system: HOP-62
UACC-257 = system: UACC-257
SK-OV-3 = system: SK-OV-3
RPMI-8226 = system: RPMI-8226
A498 = system: A498

In the case of CC(C)NC(=O)OCCN=C1c2ccccc2CCc2ccccc21, the GI50 (BT-549) is reported as 13.3 µM (inactive), the GI50 (HCT-15) is reported as 24.7 µM and the GI50 (MCF7) is reported as 22.6 µM (inactive). The GI50 (HL-60) was 19.2 µM (inactive), the GI50 (MOLT-4) was 14.8 µM (inactive) and the GI50 (TK-10) was 26.1 µM (inactive). The GI50 (UO-31) was 23.1 µM (inactive), the GI50 (HOP-92) was 24.5 µM (inactive) and the GI50 (NCI-H226) was 25.6 µM (inactive). For the same molecule, the GI50 (SR) was 18.1 µM (inactive), the GI50 (EKVX) was 23.8 µM (inactive) and the GI50 (PC-3) was 20.5 µM (inactive). For the same molecule, the GI50 (OVCAR-8) was 27 µM (inactive), the GI50 (SF-539) was 22.3 µM (inactive) and the GI50 (OVCAR-4) was 12.2 µM (inactive). For the same molecule, the GI50 (786-0) was 43.6 µM (inactive), the GI50 (OVCAR-3) was 25 µM (inactive) and the GI50 (NCI-H460) was 28.2 µM (inactive). The GI50 (Malme-3M) was 15.5 µM (inactive), the GI50 (K562) was 21.5 µM (inactive) and the GI50 (NCI-H23) was 54.3 µM (inactive). The GI50 (SW-620) was 28.3 µM (inactive), the GI50 (COLO 205) was 19.1 µM (inactive) and the GI50 (M14) was 20.3 µM (inactive). The GI50 (MDA-MB-435) was 30.6 µM (inactive), the GI50 (OVCAR-5) was 29.4 µM (inactive) and the GI50 (UACC-62) was 16.1 µM (inactive). For the same molecule, the GI50 (SN12C) was 18.8 µM (inactive), the GI50 (A549) was 22.8 µM (inactive) and the GI50 (KM12) was 37.2 µM (inactive). For the same molecule, the GI50 (SNB-75) was 24.3 µM (inactive), the GI50 (HCC 2998) was 18.4 µM (inactive) and the GI50 (SNB-19) was 20.9 µM (inactive). For the same molecule, the GI50 (CAKI-1) was 24.7 µM (inactive), the GI50 (DU-145) was 25.5 µM (inactive) and the GI50 (SK-MEL-28) was 19.7 µM (inactive). The GI50 (SF-268) was 26.2 µM (inactive), the GI50 (Hs-578T) was 24 µM (inactive) and the GI50 (CCRF-CEM) was 19.6 µM (inactive). For the same molecule, the GI50 (T47D) was 21 µM (inactive), the GI50 (HCT-116) was 21.9 µM (inactive) and the GI50 (U-251) was 23.8 µM (inactive). For the same molecule, the GI50 (IGROV-1) was 35.1 µM (inactive), the GI50 (SK-MEL-2) was 16.4 µM (inactive) and the GI50 (HT-29) was 21.4 µM (inactive). The GI50 (SF-295) was 14.7 µM (inactive), the GI50 (MDA-MB-231) was 25.2 µM (inactive) and the GI50 (MDA-N) was 18.7 µM (inactive). For the same molecule, the GI50 (ACHN) was 27.2 µM (inactive), the GI50 (SK-MEL-5) was 13.9 µM (inactive) and the GI50 (NCI/ADR-RES) was 30.3 µM (inactive). The GI50 (LOX IMVI) was 26.6 µM (inactive), the GI50 (RXF 393) was 39.7 µM (inactive) and the GI50 (HOP-62) was 21 µM (inactive). The GI50 (UACC-257) was 22.9 µM (inactive), the GI50 (SK-OV-3) was 24.8 µM (inactive) and the GI50 (RPMI-8226) was 18.2 µM (inactive).

With O=C(c1ccccc1)C1N=NCC1c1ccc([N+](=O)[O-])cc1 (stereo not drawn) the GI50 (BT-549) was 24.2 µM (inactive), the GI50 (HCT-15) was 45.8 µM and the GI50 (MCF7) was 22.4 µM (inactive). The GI50 (HL-60) was 23.1 µM (inactive), the GI50 (MOLT-4) was 22.4 µM (inactive) and the GI50 (TK-10) was 34 µM (inactive). The GI50 (UO-31) was 30.1 µM (inactive), the GI50 (HOP-92) was 23.1 µM (inactive) and the GI50 (NCI-H226) was 50.4 µM (inactive). The GI50 (SR) was 27.9 µM (inactive), the GI50 (EKVX) was 89.1 µM (inactive) and the GI50 (PC-3) was 54.8 µM (inactive). The GI50 (OVCAR-8) was 42.8 µM (inactive), the GI50 (SF-539) was 58.3 µM (inactive) and the GI50 (OVCAR-4) was 49.2 µM (inactive). For the same molecule, the GI50 (786-0) was > 100 µM (inactive), the GI50 (OVCAR-3) was 17.1 µM (inactive) and the GI50 (NCI-H460) was 38.1 µM (inactive). The GI50 (Malme-3M) was 51.4 µM (inactive), the GI50 (A498) was 39 µM (inactive) and the GI50 (K562) was 32.5 µM (inactive). For the same molecule, the GI50 (NCI-H23) was 36.1 µM (inactive), the GI50 (SW-620) was > 100 µM (inactive) and the GI50 (COLO 205) was 39.4 µM (inactive). The GI50 (M14) was 48.9 µM (inactive), the GI50 (MDA-MB-435) was 49.1 µM (inactive) and the GI50 (OVCAR-5) was > 100 µM (inactive). For the same molecule, the GI50 (UACC-62) was 49.4 µM (inactive), the GI50 (SN12C) was > 100 µM (inactive) and the GI50 (A549) was 37.2 µM (inactive). For the same molecule, the GI50 (KM12) was 45.4 µM (inactive), the GI50 (SNB-75) was 16.7 µM (inactive) and the GI50 (HCC 2998) was > 100 µM (inactive). For the same molecule, the GI50 (SNB-19) was 54.8 µM (inactive), the GI50 (CAKI-1) was 15 µM (inactive) and the GI50 (DU-145) was 18.4 µM (inactive). For the same molecule, the GI50 (SK-MEL-28) was 61.5 µM (inactive), the GI50 (SF-268) was 40.5 µM (inactive) and the GI50 (Hs-578T) was 34.8 µM (inactive). The GI50 (CCRF-CEM) was 0.935 µM (active), the GI50 (T47D) was 3.91 µM (inactive) and the GI50 (HCT-116) was 51.8 µM (inactive). For the same molecule, the GI50 (U-251) was 48.5 µM (inactive), the GI50 (SK-MEL-2) was 46.9 µM (inactive) and the GI50 (HT-29) was 36.6 µM (inactive). For the same molecule, the GI50 (SF-295) was > 100 µM (inactive), the GI50 (MDA-MB-231) was > 100 µM (inactive) and the GI50 (MDA-N) was 29.6 µM (inactive). For the same molecule, the GI50 (ACHN) was 47.1 µM (inactive), the GI50 (SK-MEL-5) was 26.1 µM (inactive) and the GI50 (NCI/ADR-RES) was 39.3 µM (inactive). The GI50 (LOX IMVI) was 36.6 µM (inactive), the GI50 (HOP-62) was > 100 µM (inactive) and the GI50 (UACC-257) was 27 µM (inactive). For the same molecule, the GI50 (SK-OV-3) was > 100 µM (inactive) and the GI50 (RPMI-8226) was 29.9 µM (inactive).
